Among the data in patent US11903388B2 (priority 2018, dated 2024) are growth values, retold here.

This test has as its system Aspergillus parasiticus B62. The format is cell-based.

As to `COC(=O)c1c(C)cc(O)cc1O` [methyl-orsellinate], the growth result was “inhibitory effects”.

Regarding `Cc1cc(OC(=O)c2c(C)cc(O)cc2O)cc(O)c1C(=O)O` [Lecanoric acid], the growth entry is recorded as “inhibitory effects”.
